Assay results from patent US20040235083A1, “Screening method” (priority 2001, published 2004).

Assays:
[1] = tested on: osteoblastic cell line MC3T3-E1; test: Alkaline phosphatase activity in MC3T3-E1 after introduction of antisense or sense DNA to NQO2 mRNA; format: cell-based, mouse; settings: MC3T3-E1, S-oligo DNA with FuGene 6, four days incubation, corrected for protein
Method: The alkaline phosphatase activity is represented by a relative activity (%) by taking a control value (with no DNA) as 100.
The mouse osteoblastic cell line, MC3T3-E1, in a MEMα medium containing 10% fetal calf serum and 100 μg/ml of kanamycin was inoculated on a 48-well plate at 1.4×10^4 cells per well and cultured overnight. To 100 μl of a serum-free αMEM were added 3 μl of FuGene 6 (Roche), 1.5 μg of the S-oligo DNA having the sequence of SEQ ID NO: 7 (antisense sequence to mouse NQO2 mRNA) and 1.5 μg of the S-oligo DNA having the sequence of SEQ ID NO: 8 (sense sequence to the mRNA) and the mixture was allowed to stand at room temperature for 15 minutes. To each well was added 22 μl of the mixture and incubated under 5% CO2 at 37° C. overnight. Thereafter, ascorbic acid was added at a final concentration of 50 μg/ml, and 10 mM of β-glycerophosphate was added. Incubation was performed for four days, and the activity of the alkaline phosphatase was measured according to Notoya et al. (Journal of Bone and Mineral Research 9: 395-400, 1994). The concentration of the protein in each cell homogenate was measured, and the activity values were corrected and shown in FIG. 1 by taking the activity obtained by the same procedure without addition of the DNA as 100%.

NQO2 = biological target: T1, NQO2 (Mus musculus, UniProt Q9JI75); test: Effect of compound on NQO2 activity (reduction of methyl red by GST-NQO2 fusion protein, absorbance at 436 nm); format: biochemical; settings: 1 μM compound; 10 nM fusion protein, 30 μM methyl red, 25° C., pH 7.4; read-out: inhibitory action on NQO2 activity
T1 construct: made in house; host or cells: E. coli DH5α carrying pGEX-4T-2 with the insert
T1 sequence (Q9JI75 1-231): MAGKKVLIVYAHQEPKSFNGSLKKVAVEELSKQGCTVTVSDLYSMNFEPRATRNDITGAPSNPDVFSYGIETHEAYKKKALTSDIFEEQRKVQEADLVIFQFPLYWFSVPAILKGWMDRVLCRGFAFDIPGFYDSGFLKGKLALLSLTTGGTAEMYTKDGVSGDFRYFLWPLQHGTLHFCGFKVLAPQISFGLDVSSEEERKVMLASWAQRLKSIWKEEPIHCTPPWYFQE
Method: Entire RNA was prepared from a mouse osteoblastic cell line, MC3T3-E1, and cDNA was synthesized by using the oligo-dT primer. PCR was performed by using the cDNA as a template and two synthetic DNAs having the nucleotide sequences of SEQ ID NO: 5 and SEQ ID NO: 6, respectively, as primers to add the sequences recognized-by restriction enzymes. The resulting DNA fragment was cleaved with restriction enzymes BamHI and SalI and inserted into the BamHI-SalI cleavage site of plasmid pGEX-4T-2 (Amersham Pharmacia Biotech). The nucleotide sequence was confirmed, and then E. coli DH5α (GIBCO BRL) carrying the plasmid was cultured in an LB medium. According to the protocol recommended by Amersham Pharmacia Biotech, expression was induced by IPTG, and then purification was performed by using Glutathione-Sepharose (Amersham Pharmacia Biotech). From 2 L of the LB medium, 3.0 mg of the fusion protein was obtained.
Compound A having an osteogenesis-promoting action was examined for effects on the NQO2 activity by using the fusion protein obtained in the above (1). […] The decrease in absorbance at 436 nm was monitored to detect the reduction of methyl red. […]

osteoblasts = test: Alkaline phosphatase induction in the test using osteoblasts; format: cell-based; settings: concentration of 1 μM

inhibition at 1 µM (NQO2) | alkaline phosphatase-inducing action (osteoblasts) | Compound | alkaline phosphatase activity relative to cells without introduction of DNA (100%) [1]
 |  | antisense DNA: S-oligo DNA having the sequence of SEQ ID NO: 7 (antisense sequence to mouse NQO2 mRNA) (antisense CTGCCATGTTGGAGGAGATA; DNA, all phosphorothioate, methylation of C not given here) | significantly higher
 |  | sense sequence DNA: S-oligo DNA having the sequence of SEQ ID NO: 8 (sense sequence to the mRNA) (sense TATCTCCTCCAACATGGCAG; DNA, all phosphorothioate, methylation of C not given here) [reference compound] | no difference was observed
38% | alkaline phosphatase-inducing action | O=C1NC(=O)C(Cc2ccc(NC(=O)C3=CC(=O)C4C(O)=CC=CC4O3)cc2)S1 (stereo not shown) [Compound A] | 
